Results from publication PMC11109052, “Metabolism characterization and toxicity of N-hydap, a marine candidate drug for lung cancer therapy by LC–MS method” (Natural Products and Bioprospecting, 2024).

Columns and labels:
[1] = target: T1, UGT2B7 (Homo sapiens, UniProt P16662); assay: Incubation with recombinant human UGT isoforms: UGT2B7; assay type: in vitro ADME; details: recombinant UGT 2 μg/mL
T1 construct: purchased Cypex (Scotland, UK)
Description: Incubation of N-hydap (2.5 μM) with eight recombinant human CYP enzymes (CYP1A2, CYP2B6, CYP2C9, CYP2C19, CYP2D6, CYP3A4, CYP4A11 and CYP4F2) at three enzyme concentrations (2, 4, and 20 μg/mL) was conducted following the same procedure as described above for microsomes. Subsequently, incubation with N-hydap (1, 2.5, and 6 μM) and twelve recombinant human UGT isoforms (UGT1A1, UGT1A3, UGT1A4, UGT1A6, UGT1A7, UGT1A8, UGT1A9, UGT1A10, UGT2B4, UGT2B7, UGT2B15 and UGT2B17) was performed, with the enzyme concentration used at 2 μg/mL. All reactions were carried out in triplicate.

[2] = Distribution studies in mice organs; assay type: in vivo; details: 30 min and 4 h
Description: The heart, liver, spleen, lungs and kidneys were removed from mice after administering a dose of 5 mg/kg through oral gavage and 2 mg/kg through tail vein injection at 30 min and 240 min, followed by homogenization with normal saline. The resulting homogenate was centrifuged at 4 °C, 13,000 rpm for 20 min, and the supernatant was then mixed with the internal standard by vortexing. The mixtures were centrifuged at 4 °C, 13,000 rpm for 15 min. The resulting supernatant was then subjected to vacuum drying for 3–4 h. Lastly, the dried powder was reconstituted with a mixture of 50% methanol and water, and then centrifuged for LC–MS testing.

[3] = tested on: Ugt1a1; assay: Real-time PCR mRNA level after 7 days gavage: Ugt1a1; assay type: in vivo, mice; parameters: key to UGT1A1 mNA expression: ↑: up-regulation; ↓: down-regulation; –: no change
Description: Mice were randomly divided into four groups, with eight animals in each group. The mice received oral pretreatment with N-hydap for 7 days at doses of 2, 5, and 10 mg/kg/day, which were considered as the low dose, medium dose, and high dose, respectively. Correspondingly, the control group received PBS. On the 8th day, the liver and kidneys were removed, and organs from eight mice per group were combined to prepare MLMs and MKMs using the detailed procedures above. Subsequently, we determined the activity of CYP and UGT enzymes by specific substrate metabolized with MLMs (0.5 mg/mL) and MKMs (0.2 mg/mL) in vitro. Specifically, the following selective substrates were used for the respective enzymes: PH (1 μM) for CYP1A2, DIC (1 μM) for CYP2C9, MP (90 μM) for CYP2C19, DM (1 μM) for CYP2D6, CZX (10 μM) for CYP2E1, Tes (1 μM) for CYP3A4, SN38 (1 μM) for UGT1A1, CACD (100 μM) for UGT1A3, Sero (20 μM) for UGT1A6, and Prop (1 μM) for UGT1A9. All substrates were dissolved in methanol or DMSO. The incubation procedure was carried out as mentioned above, and the reaction was terminated with VER (20 ng/mL) in ESI+ mode and CLP (200 ng/mL) in ESI− mode. In the ex vivo experiments, the activity of enzymes was measured by quantifying the production of various metabolites (nM/mg protein/min). The metabolites and their corresponding enzymes are as follows: APAP from PH, 4-OH-DIC from DIC, 4-OH-MP from MP, DXO from DM, 6-OH-CZX from CZX, 6-OH-Tes from Tes, SN38-G from SN38, CACD-G from CACD, Sero-G from Sero, Prop-G from Prop. The measurements were performed using multiple reaction monitoring (MRM) transitions, which are specific mass spectrometry transitions used for quantification. […]
Total RNA from liver and kidney samples taken after 7 days of N-hydap gavage was extracted using the Animal Total RNA Isolation Kit (Foregene, Chengdu, Sichuan, China) following the manufacturer’s instructions. The concentrations of total RNA were determined by a nucleic acid concentration tester at 260/280 nm. […]

[4] = Stability in tissue homogenate; assay type: in vitro ADME
Description: The stability of the KPI solution was examined after storage at 4 °C for 24 h and incubation at 37 °C for 4 h, which was conducted using the QC samples at three concentrations (five samples for each concentration). Stability in plasma and tissue homogenate was assessed by testing samples stored at both 4 °C and room temperature for 24 h.

T1 sequence (P16662 24-529): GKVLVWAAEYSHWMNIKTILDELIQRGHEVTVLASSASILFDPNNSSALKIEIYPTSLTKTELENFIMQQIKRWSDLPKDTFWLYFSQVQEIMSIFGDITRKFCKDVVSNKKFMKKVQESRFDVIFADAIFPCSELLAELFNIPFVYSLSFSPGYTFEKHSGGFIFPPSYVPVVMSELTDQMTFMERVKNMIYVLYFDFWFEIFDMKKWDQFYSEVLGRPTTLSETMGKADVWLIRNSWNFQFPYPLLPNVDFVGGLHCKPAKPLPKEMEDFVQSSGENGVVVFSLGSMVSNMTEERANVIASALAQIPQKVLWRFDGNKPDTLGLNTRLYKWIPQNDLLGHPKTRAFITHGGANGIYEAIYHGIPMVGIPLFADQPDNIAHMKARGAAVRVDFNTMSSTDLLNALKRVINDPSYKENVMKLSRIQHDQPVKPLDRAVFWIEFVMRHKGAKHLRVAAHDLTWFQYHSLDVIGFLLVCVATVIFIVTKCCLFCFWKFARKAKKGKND

Question: With `CC1CCC2C(C=CC(C)C2C(=O)c2c(O)c(C3(O)CCC(O)C4OC43)cn(O)c2=O)C1` (centres unmarked) [N-hydap, N-Hydroxyapiosporamide] as the molecule, how does the “contribution of UGT2B7 to formation of N-hydap-G” value [1] read?
Answer: The value was “secondary contributors”.

Question: What about the “total distribution ratio, heart” value ([2]; oral 5 mg/kg) of the same molecule?
Answer: The value was 13.35%.

Question: And the “total distribution ratio, kidneys” value ([2]; oral 5 mg/kg)?
Answer: Its value is 25.50%.

Question: And the “total distribution ratio, liver” value ([2]; oral 5 mg/kg)?
Answer: The value was 11.45%.

Question: And the “total distribution ratio, lungs” value ([2]; oral 5 mg/kg)?
Answer: The value was 26.26%.

Question: What about the “total distribution ratio, spleen” value ([2]; oral 5 mg/kg) of the same molecule?
Answer: The value was 23.44%.

Question: And the “total distribution ratio, heart” value ([2]; tail vein injection 2 mg/kg)?
Answer: The value was 10.57%.

Question: And the “total distribution ratio, kidneys” value ([2]; tail vein injection 2 mg/kg)?
Answer: The value was 14.08%.

Question: What about the “total distribution ratio, liver” value ([2]; tail vein injection 2 mg/kg) of the same molecule?
Answer: The value was 37.61%.

Question: And the “total distribution ratio, lungs” value ([2]; tail vein injection 2 mg/kg)?
Answer: Its value is 23.17%.

Question: And the “total distribution ratio, spleen” value ([2]; tail vein injection 2 mg/kg)?
Answer: Its value is 14.57%.

Question: And the “UGT1A1 mNA expression” value ([3]; Kidney)?
Answer: Its value is “↓”.

Question: What about the “UGT1A1 mNA expression” value ([3]; Liver) of the same molecule?
Answer: Its value is “–”.

Question: What about the “mRNA levels of Ugt1a1” value ([3]; mice, 2, 5, 10 mg/kg p.o. 7 days, kidneys) of the same molecule?
Answer: The value was “slight reduction”.

Question: And the “stability, Accuracy (Bias, %)” value ([4]; 60 nM, 4℃ for 24h)?
Answer: Its value is 102.62%.

Question: What about the “stability, Accuracy (Bias, %)” value ([4]; 60 nM, room temperature for 24h) of the same molecule?
Answer: Its value is 103.17%.

Question: And the “stability, Accuracy (Bias, %)” value ([4]; 150 nM, 4℃ for 24h)?
Answer: Its value is 103.40%.

Question: What about the “stability, Accuracy (Bias, %)” value ([4]; 150 nM, room temperature for 24h) of the same molecule?
Answer: Its value is 99.13%.

Question: What about the “stability, Accuracy (Bias, %)” value ([4]; 500 nM, 4℃ for 24h) of the same molecule?
Answer: The value was 105.16%.

Question: What about the “stability, Accuracy (Bias, %)” value ([4]; 500 nM, room temperature for 24h) of the same molecule?
Answer: Its value is 93.38%.
